Values of other authors, collected in patent US20230117508A1, “ENHANCEMENT OF CAMP SIGNALING AS A COMBINATION DRUG STRATEGY FOR THE TREATMENT OF PSYCHIATRIC AND NEUROLOGICAL DISORDERS IN WHICH DEPRESSIVE, ANHEDONIA, MOTIVATION-RELATED OR COGNITION-RELATED DYSFUNCTION EXISTS” (ALTO NEUROSCIENCE, INC., priority 2021, published 2023).

What was measured:
[1] = in vivo
[2] = humans
[3] = not given; remark: listed apart in the source
[4] = small clinical trials in depression

Structure (SMILES): O=C(Nc1c(Cl)cncc1Cl)c1ccc(OC(F)F)c(OCC2CC2)c1 [Roflumilast]
- antidepressant effect [1]: no evidence of an antidepressant effect
- cognitive effects [1]: pro-cognitive effects

Structure (SMILES): CCOC(=O)COc1ccc2c(c1)C[C@@H](NC[C@H](O)c1cccc(Cl)c1)CC2 [amibegron]
- efficacy in two acute treatment clinical trials for depression [2]: failed to show efficacy
- antidepressant-like effects in animals: promising antidepressant-like effects

Structure (SMILES): COc1ccc(C2CNC(=O)C2)cc1OC1CCCC1 (stereo not drawn) [rolipram]
- phenotypes of treated mice [3]: antidepressant and pro-cognitive phenotypes
- improvement in depression compared with TCA medications [4]: In none of these studies, however, did rolipram produce a greater improvement in depression than the TCA medications
